Patent US11753407B2, “Compounds for treating spinal muscular atrophy” (PTC Therapeutics, Inc., priority 2012, dated 2023)

Columns and labels:
[1] = test system: Smn protein in SMA patient fibroblast cells (GM03813); experiment: Smn protein assay in cultured cells (SMN HTRF); assay type: cell-based, human; conditions: SMA patient fibroblast cells, 48 hours; for maximum fold (Fold) increase of Smn protein: 7-point concentration data, fold relative to vehicle control; for EC1.5x for Smn protein expression: 7-point concentration curve, SMN HTRF, concentration producing 1.5 times Smn protein vs DMSO vehicle control
Outline: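 Fibroblasts, SMA patient; 5,000 cells/well; 7-pt curve, 3.16-fold serial dilution; 48 h, 37 °C, 5% CO2; RIPA lysis 1 h RT; anti-SMN d2 + kryptate overnight RT; HTRF 665/620 nm; fold vs DMSO; EC1.5×, max fold.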

[2] = test system: SMN2 minigene mRNA (SMN2-A minigene) in HEK293H cells; experiment: SMN2 minigene mRNA splicing RT-qPCR assay in cultured cells; assay type: cell-based, human; conditions: Homo sapiens, HEK293-H; concentration increasing full length SMN2 mRNA 1.5-fold relative to vehicle-treated cells; HEK293H cells with SMN2-A minigene, 24 hours, 7-point concentration data; read-out: EC1.5x for production of full length SMN2 mRNA
Outline: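 Stable SMN2-A minigene HEK293H; cpd 7-pt 3.16-fold series, 200× in DMSO, 24 h, 37 °C, n=2. Lysates → multiplex RT-qPCR (minigene FL + GAPDH), efficiency-corrected ΔΔCt vs vehicle. EC1.5× = 1.5-fold FL mRNA gain.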

| SMILES | melting point | maximum fold (Fold) increase of Smn protein [1] | EC (1.5-fold increase) [2] | EC1.5x for Smn protein expression [1] |
| --- | --- | --- | --- | --- |
| COc1ccc(-c2cc(=O)n3cc(N4C[C@@H]5CN(C(C)C)C[C@@H]5C4)ccc3n2)cc1F [Compound 281, 2-(3-fluoro-4-methoxyphenyl)-7-[(3aR,6aS)-5-(propan-2-yl)hexahydropyrrolo[3,4-c]pyrrol-2(1H)-yl]-4H-pyrido[1,2-a]pyrimidin-4-one] | 189 to 192 °C | ** (a fold increase between >1.2 and ≤1.35 is indicated by two stars (**)) | 0.1 to 0.3 µM |  |
| COc1ccc(-c2cc(=O)n3cc(N4CC[C@@H](N(C)C)C4)ccc3n2)cc1F [Compound 282, 7-[(3R)-3-(dimethylamino)pyrrolidin-1-yl]-2-(3-fluoro-4-methoxyphenyl)-4H-pyrido[1,2-a]pyrimidin-4-one] | 188 to 191 °C | ** (a fold increase between >1.2 and ≤1.35 is indicated by two stars (**)) | 0.3 to 1 µM |  |
| Cc1nc2ccc(-c3cc(=O)n4cc(N5CCNC(C)(C)C5)ccc4n3)cc2s1 [Compound 283, 7-(3,3-dimethylpiperazin-1-yl)-2-(2-methyl-1,3-benzothiazol-6-yl)-4H-pyrido[1,2-a]pyrimidin-4-one] | 200 to 202 °C | **** (a fold increase between >1.5 and ≤1.65 is indicated by four stars (****)) | < 0.1 µM | **** (an EC1.5x≤0.3 μM is indicated by four stars (****)) |
| Cc1nc2ccc(-c3cc(=O)n4cc(N5CCN6CCC[C@@H]6C5)ccc4n3)cc2s1 [Compound 284, 7-[(8aR)-hexahydropyrrolo[1,2-a]pyrazin-2(1H)-yl]-2-(2-methyl-1,3-benzothiazol-6-yl)-4H-pyrido[1,2-a]pyrimidin-4-one] | 254 to 256 °C | **** (a fold increase between >1.5 and ≤1.65 is indicated by four stars (****)) | 0.3 to 1 µM | *** (an EC1.5× between >0.3 μM and ≤1 μM is indicated by three stars (***)) |
| Cc1nc2ccc(-c3cc(=O)n4cc(OC5CCNCC5)ccc4n3)cc2s1 [Compound 286, 2-(2-methyl-1,3-benzothiazol-6-yl)-7-(piperidin-4-yloxy)-4H-pyrido[1,2-a]pyrimidin-4-one] | 218 to 220 °C | **** (a fold increase between >1.5 and ≤1.65 is indicated by four stars (****)) | 0.3 to 1 µM | *** (an EC1.5× between >0.3 μM and ≤1 μM is indicated by three stars (***)) |
| Cc1cn2cc(-c3cc(=O)n4cc(N5CCNCC5)ccc4n3)cc(Cl)c2n1 [Compound 287, 2-(8-chloro-2-methylimidazo[1,2-a]pyridin-6-yl)-7-(piperazin-1-yl)-4H-pyrido[1,2-a]pyrimidin-4-one] | 245 to 251 °C | ***** (a fold increase >1.65 is indicated by five stars (*****)) | < 0.1 µM | **** (an EC1.5x≤0.3 μM is indicated by four stars (****)) |
| Cc1cn2cc(-c3cc(=O)n4cc(N5C[C@@H](C)N[C@@H](C)C5)ccc4n3)cc(Cl)c2n1 [Compound 288, 2-(8-chloro-2-methylimidazo[1,2-a]pyridin-6-yl)-7-[(3R,5S)-3,5-dimethylpiperazin-1-yl]-4H-pyrido[1,2-a]pyrimidin-4-one] | 289 to 295 °C | ***** (a fold increase >1.65 is indicated by five stars (*****)) | < 0.1 µM | **** (an EC1.5x≤0.3 μM is indicated by four stars (****)) |
| Cc1cn2cc(-c3cc(=O)n4cc(N5CCCN(C)CC5)ccc4n3)cc(Cl)c2n1 [Compound 289, 2-(8-chloro-2-methylimidazo[1,2-a]pyridin-6-yl)-7-(4-methyl-1,4-diazepan-1-yl)-4H-pyrido[1,2-a]pyrimidin-4-one] | 239 to 244 °C | **** (a fold increase between >1.5 and ≤1.65 is indicated by four stars (****)) | < 0.1 µM | **** (an EC1.5x≤0.3 μM is indicated by four stars (****)) |
| Cc1cn2cc(-c3cc(=O)n4cc(N5CCN[C@H](C)C5)ccc4n3)cc(Cl)c2n1 [Compound 290, 2-(8-chloro-2-methylimidazo[1,2-a]pyridin-6-yl)-7-[(3R)-3-methylpiperazin-1-yl]-4H-pyrido[1,2-a]pyrimidin-4-one] | 236 to 239 °C | ***** (a fold increase >1.65 is indicated by five stars (*****)) | < 0.1 µM | **** (an EC1.5x≤0.3 μM is indicated by four stars (****)) |
| Cc1cn2cc(-c3cc(=O)n4cc(N5CCN[C@@H](C)C5)ccc4n3)cc(Cl)c2n1 [Compound 291, 2-(8-chloro-2-methylimidazo[1,2-a]pyridin-6-yl)-7-[(3S)-3-methylpiperazin-1-yl]-4H-pyrido[1,2-a]pyrimidin-4-one] | 236 to 239 °C | ***** (a fold increase >1.65 is indicated by five stars (*****)) | < 0.1 µM | **** (an EC1.5x≤0.3 μM is indicated by four stars (****)) |
| Cc1cn2cc(-c3cc(=O)n4cc(N5CCN6CCC[C@@H]6C5)ccc4n3)cc(Cl)c2n1 [Compound 292, 2-(8-chloro-2-methylimidazo[1,2-a]pyridin-6-yl)-7-[(8aR)-hexahydropyrrolo[1,2-a]pyrazin-2(1H)-yl]-4H-pyrido[1,2-a]pyrimidin-4-one] | 274 to 280 °C | **** (a fold increase between >1.5 and ≤1.65 is indicated by four stars (****)) | < 0.1 µM | **** (an EC1.5x≤0.3 μM is indicated by four stars (****)) |
| Cc1cn2cc(-c3cc(=O)n4cc(N5CCN6CCC[C@H]6C5)ccc4n3)cc(Cl)c2n1 [Compound 293, 2-(8-chloro-2-methylimidazo[1,2-a]pyridin-6-yl)-7-[(8aS)-hexahydropyrrolo[1,2-a]pyrazin-2(1H)-yl]-4H-pyrido[1,2-a]pyrimidin-4-one] | 269 to 275 °C | ***** (a fold increase >1.65 is indicated by five stars (*****)) | < 0.1 µM | **** (an EC1.5x≤0.3 μM is indicated by four stars (****)) |
| Cc1cn2cc(-c3cc(=O)n4cc(N5CCN(C)[C@@H](C)C5)ccc4n3)cc(F)c2n1 [Compound 295, 7-[(3S)-3,4-dimethylpiperazin-1-yl]-2-(8-fluoro-2-methylimidazo[1,2-a]pyridin-6-yl)-4H-pyrido[1,2-a]pyrimidin-4-one] | 269 to 275 °C | **** (a fold increase between >1.5 and ≤1.65 is indicated by four stars (****)) | < 0.1 µM | **** (an EC1.5x≤0.3 μM is indicated by four stars (****)) |
| Cc1cn2cc(-c3cc(=O)n4cc(N5CCN(C)[C@H](C)C5)ccc4n3)cc(F)c2n1 [Compound 296, 7-[(3R)-3,4-dimethylpiperazin-1-yl]-2-(8-fluoro-2-methylimidazo[1,2-a]pyridin-6-yl)-4H-pyrido[1,2-a]pyrimidin-4-one] | 279 to 282 °C | ***** (a fold increase >1.65 is indicated by five stars (*****)) | < 0.1 µM | **** (an EC1.5x≤0.3 μM is indicated by four stars (****)) |
| Cc1cn2cc(-c3cc(=O)n4cc(N5CCC(N(C)C)CC5)ccc4n3)cc(F)c2n1 [Compound 297, 7-[4-(dimethylamino)piperidin-1-yl]-2-(8-fluoro-2-methylimidazo[1,2-a]pyridin-6-yl)-4H-pyrido[1,2-a]pyrimidin-4-one] | 250 to 257 °C | ***** (a fold increase >1.65 is indicated by five stars (*****)) | < 0.1 µM | **** (an EC1.5x≤0.3 μM is indicated by four stars (****)) |
| COc1ccc(-c2ccc3nc(N4CCC(N(C)C)CC4)cc(=O)n3c2)cc1F [Compound 298, 2-[4-(dimethylamino)piperidin-1-yl]-7-(3-fluoro-4-methoxyphenyl)-4H-pyrido[1,2-a]pyrimidin-4-one] | 157 to 160 °C | *** (a fold increase between >1.35 and ≤1.5 is indicated by three stars (***)) | 0.3 to 1 µM |  |
| Cc1nc2c(F)cc(-c3cc(=O)n4cc(C5=CCNCC5)ccc4n3)cc2o1 [Compound 299, 2-(4-fluoro-2-methyl-1,3-benzoxazol-6-yl)-7-(1,2,3,6-tetrahydropyridin-4-yl)-4H-pyrido[1,2-a]pyrimidin-4-one] | 177 to 180 °C | ***** (a fold increase >1.65 is indicated by five stars (*****)) | < 0.1 µM | **** (an EC1.5x≤0.3 μM is indicated by four stars (****)) |
| Cc1nc2c(F)cc(-c3cc(=O)n4cc(C5=CCN(C)CC5)ccc4n3)cc2o1 [Compound 300, 2-(4-fluoro-2-methyl-1,3-benzoxazol-6-yl)-7-(1-methyl-1,2,3,6-tetrahydropyridin-4-yl)-4H-pyrido[1,2-a]pyrimidin-4-one] | 178 to 181 °C | ***** (a fold increase >1.65 is indicated by five stars (*****)) | < 0.1 µM | **** (an EC1.5x≤0.3 μM is indicated by four stars (****)) |
